Test results from patent US10710994B2, “Oxadiazole transient receptor potential channel inhibitors” (Genentech, Inc., priority 2018, dated 2020).
Where two headings read alike, the source gives them in different places.

Molecular target: human TRPA1 channel (Homo sapiens (Human), UniProt O75762)
Assay: hTRPA1 CHO Ca2+ FLIPR Tetra assay: block of cinnamaldehyde induced calcium influx
Assay type: cell-based
Conditions: CHO cells expressing TRPA1, Hill coefficient fixed to 1.5
Procedure: CHO cells expressing TRPA1 were plated into 384-well plates, incubated overnight at 37° C., and loaded with BD calcium indicator dye for 1 hr at 37° C. followed by 15 minutes at room temperature. The assay buffer was Hank's Balanced Salt Solution (HBSS) containing 20 mM HEPES (pH readjusted to 7.4) along with 0.02% BSA.
Following dye load and plate cool down, compounds were added to the cells using FLIPR Tetra. Plates were then incubated with compounds for 10 minutes or 90 minutes at room temperature prior to adding agonist. Following this incubation, about an EC80 concentration of cinnamaldehyde […] was added to active the channels and block of cinnamaldehyde induced calcium influx was measured.
Fixing the Hill coefficient will generally reduce variability of the IC50 determination. The IC50 results were individually examined to make sure the MIN and MAX points were set correctly prior to validation of the results.

[1] = read-out: hTRPA1 IC50 10 min, 10 minutes incubation with compound before cinnamaldehyde (about EC80)
[2] = read-out: hTRPA1 IC50 90 min, 90 minutes incubation with compound before cinnamaldehyde (about EC80)

human TRPA1 channel, sequence (O75762 whole entry): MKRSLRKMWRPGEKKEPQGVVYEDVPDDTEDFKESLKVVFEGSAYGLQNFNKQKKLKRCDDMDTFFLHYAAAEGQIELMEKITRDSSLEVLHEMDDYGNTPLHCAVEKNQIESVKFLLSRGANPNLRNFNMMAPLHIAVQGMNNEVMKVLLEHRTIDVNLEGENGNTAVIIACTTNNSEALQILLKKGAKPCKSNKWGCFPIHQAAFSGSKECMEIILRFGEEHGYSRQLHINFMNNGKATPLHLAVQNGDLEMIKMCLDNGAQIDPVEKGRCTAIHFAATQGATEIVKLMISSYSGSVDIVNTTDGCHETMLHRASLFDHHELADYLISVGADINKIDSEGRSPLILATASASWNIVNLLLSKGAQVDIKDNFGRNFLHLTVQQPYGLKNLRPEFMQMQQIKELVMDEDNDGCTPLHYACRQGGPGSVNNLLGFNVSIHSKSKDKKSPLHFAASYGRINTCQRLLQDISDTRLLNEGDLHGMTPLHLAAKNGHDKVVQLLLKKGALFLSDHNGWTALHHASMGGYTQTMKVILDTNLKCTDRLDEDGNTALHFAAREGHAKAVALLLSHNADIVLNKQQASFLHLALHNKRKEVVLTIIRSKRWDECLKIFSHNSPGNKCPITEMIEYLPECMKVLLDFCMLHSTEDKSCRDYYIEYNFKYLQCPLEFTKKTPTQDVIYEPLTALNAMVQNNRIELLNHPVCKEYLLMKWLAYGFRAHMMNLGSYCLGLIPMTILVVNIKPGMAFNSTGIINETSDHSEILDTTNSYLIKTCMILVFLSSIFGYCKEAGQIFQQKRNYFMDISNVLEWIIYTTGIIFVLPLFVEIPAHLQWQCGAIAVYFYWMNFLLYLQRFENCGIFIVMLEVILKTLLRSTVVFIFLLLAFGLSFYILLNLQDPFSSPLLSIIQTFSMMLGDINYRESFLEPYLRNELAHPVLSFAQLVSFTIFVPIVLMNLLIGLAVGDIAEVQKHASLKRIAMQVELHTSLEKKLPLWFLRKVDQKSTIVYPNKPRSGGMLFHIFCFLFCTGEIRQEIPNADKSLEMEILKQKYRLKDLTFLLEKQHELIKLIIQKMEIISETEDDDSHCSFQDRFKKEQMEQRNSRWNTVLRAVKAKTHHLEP

| Compound | IC50 [1] | IC50 [2] |
| --- | --- | --- |
| Cn1cnc2ncn(Cc3nc([C@@H]4CO[C@@H](c5ccc(Cl)c(Cl)c5)C4)no3)c(=O)c21 [Example 31, 1-((3-((3R,5R)-5-(3,4-dichlorophenyl)tetra-hydrofuran-3-yl)-1,2,4-oxadiazol-5-yl)methyl)-7-methyl-1,7-dihydro-6H-purin-6-one] | 0.0197 µM | 0.0078 µM |
| Cn1cnc2ncn(Cc3nc([C@@H]4CO[C@@H](c5ccc(Cl)c(F)c5)C4)no3)c(=O)c21 [Example 32, 1-((3-((3R,5R)-5-(4-chloro-3-fluorophenyl)tetrahydro-furan-3-yl)-1,2,4-oxadiazol-5-yl)methyl)-7-methyl-1,7-dihydro-6H-purin-6-one] | 0.00788 µM | 0.002 µM |
| Cn1cnc2ncn(Cc3nc([C@@H]4CO[C@@H](c5ccc6ccccc6c5)C4)no3)c(=O)c21 [Example 33, 7-methyl-1-((3-((3R,5R)-5-(naphthalen-2-yl)tetrahydrofuran-3-yl)-1,2,4-oxadiazol-5-yl)methyl)-1,7-dihydro-6H-purin-6-one] | 0.00409 µM | 0.0024 µM |
| Cn1cnc2ncn(Cc3nc([C@@H]4CO[C@@H](c5cc(F)cc(F)c5)C4)no3)c(=O)c21 [Example 34, 1-((3-((3R,5R)-5-(3,5-difluorophenyl)tetra-hydrofuran-3-yl)-1,2,4-oxadiazol-5-yl)methyl)-7-methyl-1,7-dihydro-6H-purin-6-one] | 0.0635 µM | 0.028 µM |
| Cn1cnc2ncn(Cc3nc([C@@H]4CO[C@@H](c5ccc(F)c(Cl)c5)C4)no3)c(=O)c21 [Example 35, 1-((3-((3R,5R)-5-(3-chloro-4-fluorophenyl)tetrahydro-furan-3-yl)-1,2,4-oxadiazol-5-yl)methyl)-7-methyl-1,7-dihydro-6H-purin-6-one] | 0.0164 µM | 0.0036 µM |
| Cn1cnc2ncn(Cc3nc([C@@H]4CO[C@@H](c5ccc(C#N)cc5)C4)no3)c(=O)c21 [Example 37, 4-((2R,4R)-4-(5-((7-methyl-6-oxo-6,7-dihydro-1H-purin-1-yl)methyl)-1,2,4-oxadiazol-3-yl)tetrahydrofuran-2-yl)benzonitrile] | 0.108 µM | 0.052 µM |
| Cn1cnc2ncn(Cc3nc([C@@H]4CO[C@@H](c5ccc(C(F)(F)F)cc5)C4)no3)c(=O)c21 [Example 38, 7-methyl-1-((3-((3R,5R)-5-(4-(trifluoromethyl)phenyl)tetrahydrofuran-3-yl)-1,2,4-oxadiazol-5-yl)methyl)-1,7-dihydro-6H-purin-6-one] | 0.0464 µM | 0.029 µM |
| Cn1cnc2ccn(Cc3nc([C@@H]4CO[C@@H](c5ccc(Cl)cc5)C4)no3)c(=O)c21 [Example 39, 5-((3-((3R,5R)-5-(4-chlorophenyl)tetrahydro-furan-3-yl)-1,2,4-oxadiazol-5-yl)methyl)-3-methyl-3,5-dihydro-4H-imidazo[4,5-c]pyridin-4-one] | 0.00306 µM | 0.00042 µM |
| Cn1cnc2ncn(Cc3nc([C@@H]4CO[C@@H](c5cc(F)c(F)c(F)c5)C4)no3)c(=O)c21 [Example 40, 7-methyl-1-((3-((3R,5R)-5-(3,4,5-trifluorophenyl)tetrahydrofuran-3-yl)-1,2,4-oxadiazol-5-yl)methyl)-1,7-dihydro-6H-purin-6-one] | 0.0276 µM | 0.011 µM |
| Cn1cnc2ncn(Cc3nc([C@@H]4CO[C@@H](c5ccc(Cl)cn5)C4)no3)c(=O)c21 [Example 41, 1-((3-((3R,5R)-5-(5-chloropyridin-2-yl)tetrahydrofuran-3-yl)-1,2,4-oxadiazol-5-yl)methyl)-7-methyl-1,7-dihydro-6H-purin-6-one] | 0.19 µM | 0.17 µM |
| Cn1cnc2ncn(Cc3nc([C@@H]4CO[C@@](C)(c5ccc(Cl)cc5)C4)no3)c(=O)c21 [Example 42, 1-((3-((3R,5R)-5-(4-chlorophenyl)-5-methyltetrahydrofuran-3-yl)-1,2,4-oxadiazol-5-yl)methyl)-7-methyl-1,7-dihydro-6H-purin-6-one] | 3.71 µM | 2.2 µM |
| Cn1cnc2ncn(Cc3nc([C@@H]4CO[C@@]5(Cc6ccccc65)C4)no3)c(=O)c21 [Example 43, 1-((3-((4′R,7R)-4′,5′-dihydro-3′H-spiro[bicyclo[4.2.0]octane-7,2′-furan]-1(6),2,4-trien-4′-yl)-1,2,4-oxadiazol-5-yl)methyl)-7-methyl-1,7-dihydro-6H-purin-6-one] | 0.278 µM | 0.14 µM |
| Cc1cncc2ncn(Cc3nc([C@@H]4CO[C@@H](c5ccc(Cl)cc5)C4)no3)c(=O)c12 [Example 44, 3-((3-((3R,5R)-5-(4-chlorophenyl)tetrahydro-furan-3-yl)-1,2,4-oxadiazol-5-yl)methyl)-5-methylpyrido[3,4-d]pyrimidin-4(3H)-one] | 0.0032 µM | 0.0013 µM |
| O=c1c2ccncc2ncn1Cc1nc([C@@H]2CO[C@@H](c3ccc(Cl)cc3)C2)no1 [Example 45, 3-((3-((3R,5R)-5-(4-chlorophenyl)tetrahydro-furan-3-yl)-1,2,4-oxadiazol-5-yl)methyl)pyrido[3,4-d] pyrimidin-4(3H)-one] | 0.0193 µM | 0.0078 µM |
| Cn1c(=O)ccc2ncn(Cc3nc([C@@H]4CO[C@@H](c5ccc(Cl)cc5)C4)no3)c(=O)c21 [Example 46, 3-((3-((3R,5R)-5-(4-chlorophenyl)tetra-hydrofuran-3-yl)-1,2,4-oxadiazol-5-yl)methyl)-5-methyl-3,5-dihydropyrido[3,2-d] pyrimidine-4,6-dione] | 0.0145 µM | 0.014 µM |
| Cc1c(=O)ncn2cnn(Cc3nc([C@@H]4CO[C@@H](c5ccc(Cl)cc5)C4)no3)c(=O)c12 [Example 47, 2-((3-((3R,5R)-5-(4-chlorophenyl)tetra-hydrofuran-3-yl)-1,2,4-oxadiazol-5-yl)methyl)-9-methyl-2H-pyrimido[1,6-d][1,2,4] triazine-1,8-dione] | 0.332 µM | 0.24 µM |
| Cc1cnn2ncn(Cc3nc([C@@H]4CO[C@@H](c5ccc(Cl)cc5)C4)no3)c(=O)c12 [Example 48, 3-((3-((3R,5R)-5-(4-chlorophenyl)tetra-hydrofuran-3-yl)-1,2,4-oxadiazol-5-yl)methyl)-5-methylpyrazolo[5,1-f][1,2,4]triazin-4(3H)-one] | 0.0012 µM | 0.0008 µM |
| Cc1ccc(=O)n2ccn(Cc3nc([C@@H]4CO[C@@H](c5ccc(Cl)cc5)C4)no3)c(=O)c12 [Example 49, 2-((3-((3R,5R)-5-(4-chlorophenyl)tetrahydro-furan-3-yl)-1,2,4-oxadiazol-5-yl)methyl)-9-methyl-2H-pyrido[1,2-a]pyrazine-1,6-dione] | – | 0.0043 µM |
| Cn1c(=O)c2c(ncn2Cc2nc([C@@H]3CO[C@@H](c4ccc(Cl)cc4)C3)no2)n(C)c1=O [Example 50, 7-((3-((3R,5R)-5-(4-chlorophenyl)tetrahydro-furan-3-yl)-1,2,4-oxadiazol-5-yl)methyl)-1,3-dimethyl-3,7-dihydro-1H-purine-2,6-dione] | 0.0508 µM | 0.057 µM |
| Cn1c(NCc2ccccn2)nc2ncn(Cc3nc([C@@H]4CO[C@@H](c5ccc(Cl)cc5)C4)no3)c(=O)c21 [Example 51] | 0.0401 µM | 0.029 µM |
| COc1nccc2c(=O)n(Cc3nc([C@@H]4CO[C@@H](c5ccc(Cl)cc5)C4)no3)cnc12 [Example 52, 3-((3-((3R,5R)-5-(4-chlorophenyl)tetrahydro-furan-3-yl)-1,2,4-oxadiazol-5-yl)methyl)-8-methoxypyrido[3,4-d]pyrimidin-4(3H)-one] | 0.0951 µM | 0.14 µM |
| Cn1cnc2ncn(Cc3nc([C@@H]4CO[C@@H](c5ccc6ncsc6c5)C4)no3)c(=O)c21 [Example 53, 1-((3-((3R,5R)-5-(benzo[d]thiazol-6-yl)tetrahydrofuran-3-yl)-1,2,4-oxadiazol-5-yl)methyl)-7-methyl-1,7-dihydro-6H-purin-6-one] | 0.146 µM | 0.088 µM |
| Cc1ccnc2ncn(Cc3nc([C@@H]4CO[C@@H](c5ccc(Cl)cc5)C4)no3)c(=O)c12 [Example 54, 3-((3-((3R,5R)-5-(4-chlorophenyl)tetrahydro-furan-3-yl)-1,2,4-oxadiazol-5-yl)methyl)-5-methylpyrido[2,3-d] pyrimidin-4(3H)-one] | 0.00214 µM | 0.00073 µM |
| Cn1cnc2ncn(Cc3nc([C@@H]4CO[C@@H](c5ccc(Cl)cc5)C4)no3)c2c1=O [Example 55, 7-((3-((3R,5R)-5-(4-chlorophenyl)tetrahydro-furan-3-yl)-1,2,4-oxadiazol-5-yl)methyl)-1-methyl-1,7-dihydro-6H-purin-6-one] | 0.019 µM | 0.012 µM |
| Cn1cnc2ccn(Cc3nc([C@@H]4CO[C@@H](c5ccc(F)cc5)C4)no3)c(=O)c21 [Example 56, 5-((3-((3R,5R)-5-(4-fluorophenyl)tetrahydro-furan-3-yl)-1,2,4-oxadiazol-5-yl)methyl)-3-methyl-3,5-dihydro-4H-imidazo[4,5-c]pyridin-4-one] | 0.00676 µM | 0.0019 µM |
| Cn1cnc2cnn(Cc3nc([C@@H]4CO[C@@H](c5ccc(Cl)cc5)C4)no3)c(=O)c21 [Example 57, 5-((3-((3R,5R)-5-(4-chlorophenyl)tetrahydro-furan-3-yl)-1,2,4-oxadiazol-5-yl)methyl)-3-methyl-3,5-dihydro-4H-imidazo[4,5-d] pyridazin-4-one] | 0.0388 µM | 0.018 µM |
